Laboratory results published in patent US20230293708A1, “CONJUGATE OF SAPONIN AND SINGLE-DOMAIN ANTIBODY, PHARMACEUTICAL COMPOSITION COMPRISING SAID CONJUGATE, THERAPEUTIC USE THEREOF” (SAPREME TECHNOLOGIES B.V., priority 2020, published 2023).
Like-named read-outs stand apart in the source and are kept apart here.

Tests used:
Experiment in all cases: Cell viability (MTS) assay, cell killing
Format in all cases: cell-based, human
[1] = test system: A431 cells
Experimental: (§1) After treatment the cells were incubated for 72 hr at 37° C. before the cell viability was determined by a MTS-assay, performed according to the manufacturer's instruction (CellTiter 96® AQueous One Solution Cell Proliferation Assay, Promega). Briefly, the MTS solution was diluted 20× in DMEM without phenol red (PAN-Biotech GmbH) supplemented with 10% FBS. The cells were washed once with 200 μL/PBS well, after which 100 μL diluted MTS solution was added/well. The plate was incubated for approximately 20-30 minutes at 37° C. Subsequently, the OD at 492 nm was measured on a Thermo Scientific Multiskan FC plate reader (Thermo Scientific). For quantification the background signal of ‘medium only’ wells was subtracted from all other wells, before the cell viability percentage of treated/untreated cells was calculated, by dividing the background corrected signal of treated wells over the background corrected signal of the untreated wells (×100).
(§2) Cells were seeded in a 96 well plate at 5.000-10.000 c/w in 100 μL/well and incubated overnight at 37° C. […] The media was removed from the cell culture plate and replaced by 180 μL culture media, followed by the addition of 20 μL treatment-mix/well. […]
(§3) After treatment the cells were incubated for 72 hr at 37° C. before the cell viability was determined by a MTS-assay, performed according to the manufacturer's instruction (CellTiter 96® AQueous One Solution Cell Proliferation Assay, Promega). […] Subsequently, the optical density at 492 nm was measured on a Thermo Scientific Multiskan FC plate reader (Thermo Scientific). For quantification the background signal of ‘medium only’ wells was subtracted from all other wells, before the ratio of […].

[2] = test system: SK-BR-3 cells; settings: read-out: IC50 (calculated on concentration SO1861), + fixed 1.5 pM EGF-dianthin
Experimental: as §1, §2, §3

[3] = test system: CaSki cells
Experimental: (§4) Cells were seeded in a 96 well plate at 5.000-10.000 c/w in 100 μL/well and incubated overnight at 37° C. […] The media was removed from the cell culture plate and replaced by 180 μL culture media, followed by the addition of 20 μL treatment-mix/well. […] In the case that endosomal acidification inhibitors (chloroquine (Sigma Aldrich) or bafilomycin A1 (Enzo Life Sciences)) were used, the cell culture media in step 1 of treatment was replaced by 180 μL media containing 1 μM chloroquine or 0.2 μM bafilomycin A1. The plate was incubated for 1 hour at 37° C., before the 10× treatment-mix samples were added. The remaining incubation and treatment steps were performed according to standard procedures known in the field.
(§5) After treatment the cells were incubated for 72 hr at 37° C. before the cell viability was determined by a MTS-assay, performed according to the manufacturer's instruction (CellTiter 96® AQueous One Solution Cell Proliferation Assay, Promega). Briefly, the MTS solution was diluted 20× in DMEM without phenol red (PAN-Biotech GmbH) supplemented with 10% FBS (PAN-Biotech GmbH). The cells were washed once with 200 μL PBS per well, after which 100 μL diluted MTS solution was added per well. The plate was incubated for approximately 20-30 minutes at 37° C. Subsequently, the optical density at 492 nm was measured on a Thermo Scientific Multiskan FC plate reader (Thermo Scientific). For quantification the background signal of ‘medium only’ wells was subtracted from all other wells, before the ratio of […].

[4] = test system: JIMT-1 cells; settings: + 1500 nM SO1861 (unconjugated)
Experimental: as §4, §5

[5] = test system: HeLa cells; settings: + 1500 nM SO1861 (unconjugated)
Experimental: as §4, §5

[6] = read-out: IC50 (calculated on concentration SO1861), SO1861 or mAb-SO1861 titrated + fixed 50 pM trastuzumab-saporin

Row | Compound | IC50 ([1]; read-out: IC50 (calculated on concentration SO1861), + fixed 10 pM cetuximab-saporin) | IC50 [1, 6] | IC50 [2] | IC50 [3, 6] | IC50 ([3]; + 1500 nM SO1861 (unconjugated), read-out: IC50) | IC50 [4] | IC50 [5]
1 | CC(=O)O[C@H]1[C@H](O[C@@H]2OC[C@@H](O)[C@H](O)[C@H]2O)[C@@H](O)[C@H](O[C@@H]2[C@H](O)[C@@H](O[C@@H]3O[C@@H](C)[C@H](O[C@@H]4OC[C@@H](O)[C@H](O[C@@H]5OC[C@@H](O)[C@H](O)[C@H]5O)[C@H]4O)[C@@H](O)[C@H]3O)[C@H](OC(=O)[C@]34CCC(C)(C)C[C@H]3C3=CC[C@@H]5[C@@]6(C)CC[C@H](O[C@H]7O[C@H](C(=O)O)[C@@H](O)[C@H](O[C@@H]8OC[C@@H](O)[C@H](O)[C@H]8O)[C@H]7O[C@@H]7O[C@H](CO)[C@H](O)[C@H](O)[C@H]7O)[C@@](C)(C=O)[C@@H]6CC[C@@]5(C)[C@]3(C)C[C@H]4O)O[C@@H]2C)O[C@@H]1C [SO1861] | 600 nM | ≥ 1000 nM | 800 nM | ≥ 1000 nM | – | – | –
2 | Saporin | – | – | – | – | 0.015 nM | 0.03 nM | 0.03 nM
